We go through four molecules from article PMC5699024 (Proceedings of the National Academy of Sciences of the …, 2017).

The test system of assay [1] is AND T cells. Description: ZAP70-EGFP recruitment and cell morphology. In kind it is cell-based, mouse. As to conditions: for ZAP70 recruitment to plasma membrane / cell morphology: T102S/MHC well below, MCC/MHC above NFAT threshold; for linear ZAP70-EGFP trajectories: ∼5-min window, TIRF.
Assay [2] concerns AND T cells. Description: ICAM-YFP distribution and T cell contact with supported membrane. It is filed as cell-based, mouse. Conditions: 1 h pretreatment.
The test system of assay [3] is AND T cells. Description: NFAT translocation assay. It is filed as cell-based, mouse. Conditions: MCC/MHC:AND; unlabeled CD80 on bilayer (200 molecules per micrometer).
Assay [4] addresses T1, CD28 (Mus musculus, UniProt P31041).
T1 sequence (P31041 20-218): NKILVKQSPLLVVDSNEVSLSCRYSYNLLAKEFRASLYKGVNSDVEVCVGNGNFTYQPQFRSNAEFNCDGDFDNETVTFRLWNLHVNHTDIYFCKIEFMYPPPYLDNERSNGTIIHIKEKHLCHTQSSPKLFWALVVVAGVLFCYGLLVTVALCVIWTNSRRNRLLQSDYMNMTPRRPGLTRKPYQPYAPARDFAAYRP
Description: single-molecule CD80:CD28 binding in AND T cells. As to conditions: 3-s time lapse, ∼10 cells, one experiment.

Assay [5] addresses CD28. Conditions: CD80:CD28 solution affinity, comparable with pMHC:TCR; ref [25], [32]–[34]; cited from earlier work.
Assay [6] deals with 5c.c7 TCR. Description: single-molecule pMHC:TCR dwell time in live T cells. It is filed as binding, mouse. As to conditions: almost four orders of magnitude of pMHC density.

Entries after “also recorded” stand apart in the source; their conditions may differ.

On to ANERADLIAYLKQASK [T102S], for which, in assay [1], the “ZAP70 recruitment to plasma membrane” value is “low levels”; the cell morphology result is “asymmetric, crawling morphology”; the “linear ZAP70-EGFP trajectories” value is “asymmetric”.

`COC(=O)[C@H](CC(C)C)NC(=O)c1ccc(NC[C@@H](N)CS)cc1-c1cccc2ccccc12` [GGTI-298]: in assay [2], the ICAM-YFP distribution entry was “relatively even ICAM-YFP distribution across the T cell” and the “probability of T cell landing on supported membrane” value is “decreased the probability of the T cell’s landing on the supported membrane”.

With “CD80: decahistidine-tagged CD80 protein expressed in High Five cells; costimulatory ligand of CD28”, the “effect of CD80 on NFAT threshold density, MCC” value in assay [3] is “lowers the NFAT threshold density”. Further, in assay [4], the “CD80:CD28 〈τoff〉 versus pMHC density” value is recorded as “constant as a function of pMHC density; also recorded: constant with respect to pMHC density”. The solution affinity entry in assay [5] is on record as “low micromolar range”.

As for “ANERADLIAYLKQATK [MCC, moth cytochrome c (amino acids 88–103)]”, the “〈τoff〉 over pMHC density titration” value in assay [6] is “remains constant”. Also, in assay [1], the “ZAP70 recruitment to plasma membrane” value is “enhanced ZAP70 recruitment”; the cell morphology entry is “stationary, centrosymmetric cell morphology”; the “linear ZAP70-EGFP trajectories” value was “centrosymmetric”.
